Assay results from patent publication US8115033B2, “3-(4-hydroxy-3-methoxyphenyl)-1-(4-hydroxyphenyl)-1-propanone and use thereof as an antimicrobial active ingredient” (Symrise AG, priority 2007, dated 2012).
In brackets after ≈: the same amount, converted by molar mass.

Assays:
[1] = system: Brevibacterium epidermidis (ATCC 35514); experiment: turbidimetric growth-curve MIC determination; assay type: cell-based; details: turbidimetry 620 nm, 16 h, 37° C.
Description: (§1) The recognition that 3-(4-hydroxy-3-methoxyphenyl)-1-(4-hydroxyphenyl)-1-propanone of the formula 1 is very particularly suitable for combating microorganisms which are responsible for body odor is based on series of investigations relating to the particularly relevant microorganisms Staphylococcus epidermidis, Corynebacterium xerosis and Brevibacterium epidermidis. The antimicrobial action of 3-(4-hydroxy-3-methoxyphenyl)-1-(4-hydroxyphenyl)-1-propanone is here detected with the assistance of a turbidimetric measurement method. Turbidity measurement is used to establish growth curves for the particular microorganism in the presence and absence of an antimicrobial active ingredient. A possible inhibitory action of the test substance used is identified from the profile of the growth curves. Solutions with saline or DMSO for 100% growth are prepared as a negative control. The active substances to be investigated are first diluted in DMSO in reaction vessels. Dilution is carried out in accordance with the concentration range to be tested and corresponds in each case to 100 times the concentration of the subsequent final concentration in the test. Testing is usually begun with a final concentration of 2000 ppm in the test. Growth curves at final concentrations of 1000 ppm, 500 ppm, 250 ppm, 125 ppm, 64 ppm, 32 ppm, 16 ppm and 8 ppm are subsequently determined. The bacterial cultures are then incubated in the presence of the various final concentrations of antimicrobial active ingredient for 16 h (incubation temperature: 37° C.). The absorption values (wavelength 620 nm; measurement interval: 20 minutes) obtained over the 16 hour period of turbidimetric measurement are recorded and exported into the spreadsheet program MS Excel. Means from in each case three parallel batches are calculated and used as the basis for establishing growth curves. The curves of the individual test sample concentrations are compared with those for the negative controls and the MIC value (minimum inhibitory concentration) is determined. […]

[2] = system: Corynebacterium xerosis (DSM 20743); experiment: turbidimetric growth-curve MIC determination; assay type: cell-based; details: DSM20743, turbidimetry 620 nm, 16 h, 37° C., read-out: MIC value (complete inhibition of growth)
Description: as §1

[3] = system: Staphylococcus epidermidis (ATCC 12228); experiment: turbidimetric growth-curve MIC determination; assay type: cell-based; details: turbidimetry 620 nm, 16 h, 37° C.
Description: as §1

[4] = system: Corynebacterium xerosis (DSM 20743); experiment: quantitative suspension test; assay type: cell-based
[5] = system: Staphylococcus epidermidis (ATCC 12228); experiment: quantitative suspension test; assay type: cell-based
[6] = system: Brevibacterium epidermidis (ATCC 35514); experiment: quantitative suspension test; assay type: cell-based
[7] = system: microorganisms which cause body odor; experiment: in vivo sniffing tests on human test subjects suffering from severe body odor; details: human test subjects with severe body odor
[8] = investigations into chemical properties (stability); assay type: physicochemical
Description: In addition, in pure form, the compound according to the invention of the formula 1 is a white solid which forms a colorless solution in (cosmetic and/or pharmaceutical) carriers; furthermore, no discoloration was observed after incorporation of the compound according to the invention of the formula 1 in cosmetic products, in medical devices and in pharmaceutical preparations.

- MIC [2]: 500 µg/mL (≈ 1840 µM)
- temperature stability [8]: elevated temperature stability
SMILES: COc1cc(CCC(=O)c2ccc(O)cc2)ccc1O [3-(4-hydroxy-3-methoxyphenyl)-1-(4-hydroxyphenyl)-1-propanone]
- concentration giving inhibition of the growth [1]: below 0.1 wt. %
- concentration giving inhibition of the growth [3]: below 0.1 wt. %
- antimicrobial activity [4]: confirm the antimicrobial activity
- antimicrobial activity [5]: confirm the antimicrobial activity
- antimicrobial activity [6]: confirm the antimicrobial activity
- antimicrobial activity (body odor) [7]: confirm the antimicrobial activity
- stability over pH values ([8]; wide range of pH values): high stability over a wide range of pH values
